Structures can show the parent of a compound that is named as a salt. Where a SMILES comes first, the peptide text is derived from it.
What was measured:
[1] = target: T1, Trypsin (Bos taurus, UniProt P00760); assay: Relative reactivity of substrate with trypsin (absorbancy at 405 nm); format: biochemical, Bovine; conditions: substrate 10 mM/l; trypsin 0.07 U/ml; Tris 50 mmol, NaCl 150 mmol, pH 8.1; 37° C. 10 minutes; absorbancy 405 nm; relative to S-2222 10 mM = 1.0
T1 construct: purchased Boehringer
T1 sequence (P00760 24-246): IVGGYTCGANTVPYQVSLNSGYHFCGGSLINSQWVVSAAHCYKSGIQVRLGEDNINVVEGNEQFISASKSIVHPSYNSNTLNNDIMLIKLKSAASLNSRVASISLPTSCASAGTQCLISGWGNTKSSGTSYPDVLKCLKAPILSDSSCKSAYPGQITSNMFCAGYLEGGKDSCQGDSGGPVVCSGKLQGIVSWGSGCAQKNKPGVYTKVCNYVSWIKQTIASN
Protocol: (§1) Specificity of the synthesized new substrate was examined by reacting with each enzyme. Details of reagents used are as describved below.
(§2) (2) Buffer: Kind of buffer, NaCl and its concentration and pH (25° C.) were set as shown below depending upon enzyme. […]
(§3) (3) Enzyme used: Enzyme used and its source, etc. are as follows. […]
(§4) (4) Terminate solution: 10% acetic acid aqueous solution.
(§5) Buffer, 0.5 ml and 0.1 ml of substrate solution are charged in a silicone-treated hard glass test tube or plastic test tube. The mixture is previously heated for 10 minutes in a thermostat at 37° C. Then, 0.05 ml of enzyme reagent is added to the mixture to perform enzyme reaction at 37° C. for 10 minutes.
Accurately 10 minutes after, 2.5 ml of the terminate solution is added to stop the enzyme reaction. Then the reaction mixture is allowed to stand at 37° C for 10 minutes and its absorbancy is measured at 405 nm.
(§6) Values in the tables indicate relative values when absorbancy of substrate S-2222, 10 mM, was made 1.0.

[2] = tested on: Normal serum; assay: Relative reactivity of substrate with normal serum (absorbancy at 405 nm); format: biochemical; conditions: substrate 10 mM/l; undiluted human normal serum; Tris 50 mmol, NaCl 150 mmol, pH 8.5; 37° C. 5 minutes; absorbancy 405 nm; relative to S-2222 10 mM = 1.0
Protocol: as §1, §2, §3
Normal Human -- -- undiluted
as §4
as §5, with “5” for “10”, “0.1” for “0.05”, “normal serum” for “enzyme reagent”
Accurately 5 minutes after, 2.0 ml of the terminate solution is added to stop the enzyme reaction. Then the reaction mixture is allowed to stand at 37° C. for 10 minutes and its absorbancy is measured at 405 nm.
as §6

[3] = target: T2, α2 -macroglobulin-trypsin complex (α2 M-Try) (Bos taurus, UniProt P00760); assay: Relative reactivity of substrate with α2 M-Try (absorbancy at 405 nm); format: biochemical, Bovine; conditions: substrate 10 mM/l; α2 M-Try 1/20 dilution; Bistrispropane 100 mmol, NaCl 150 mmol, pH 8.7; 37° C. 10 minutes; absorbancy 405 nm; relative to S-2222 10 mM = 1.0
T2 construct: purchased SIGMA (Try); Boehringer (α2 M)
T2 sequence (P00760 24-246): T1 sequence (P00760 24-246)
T2 sequence (Q7SIH1 24-1510 partner): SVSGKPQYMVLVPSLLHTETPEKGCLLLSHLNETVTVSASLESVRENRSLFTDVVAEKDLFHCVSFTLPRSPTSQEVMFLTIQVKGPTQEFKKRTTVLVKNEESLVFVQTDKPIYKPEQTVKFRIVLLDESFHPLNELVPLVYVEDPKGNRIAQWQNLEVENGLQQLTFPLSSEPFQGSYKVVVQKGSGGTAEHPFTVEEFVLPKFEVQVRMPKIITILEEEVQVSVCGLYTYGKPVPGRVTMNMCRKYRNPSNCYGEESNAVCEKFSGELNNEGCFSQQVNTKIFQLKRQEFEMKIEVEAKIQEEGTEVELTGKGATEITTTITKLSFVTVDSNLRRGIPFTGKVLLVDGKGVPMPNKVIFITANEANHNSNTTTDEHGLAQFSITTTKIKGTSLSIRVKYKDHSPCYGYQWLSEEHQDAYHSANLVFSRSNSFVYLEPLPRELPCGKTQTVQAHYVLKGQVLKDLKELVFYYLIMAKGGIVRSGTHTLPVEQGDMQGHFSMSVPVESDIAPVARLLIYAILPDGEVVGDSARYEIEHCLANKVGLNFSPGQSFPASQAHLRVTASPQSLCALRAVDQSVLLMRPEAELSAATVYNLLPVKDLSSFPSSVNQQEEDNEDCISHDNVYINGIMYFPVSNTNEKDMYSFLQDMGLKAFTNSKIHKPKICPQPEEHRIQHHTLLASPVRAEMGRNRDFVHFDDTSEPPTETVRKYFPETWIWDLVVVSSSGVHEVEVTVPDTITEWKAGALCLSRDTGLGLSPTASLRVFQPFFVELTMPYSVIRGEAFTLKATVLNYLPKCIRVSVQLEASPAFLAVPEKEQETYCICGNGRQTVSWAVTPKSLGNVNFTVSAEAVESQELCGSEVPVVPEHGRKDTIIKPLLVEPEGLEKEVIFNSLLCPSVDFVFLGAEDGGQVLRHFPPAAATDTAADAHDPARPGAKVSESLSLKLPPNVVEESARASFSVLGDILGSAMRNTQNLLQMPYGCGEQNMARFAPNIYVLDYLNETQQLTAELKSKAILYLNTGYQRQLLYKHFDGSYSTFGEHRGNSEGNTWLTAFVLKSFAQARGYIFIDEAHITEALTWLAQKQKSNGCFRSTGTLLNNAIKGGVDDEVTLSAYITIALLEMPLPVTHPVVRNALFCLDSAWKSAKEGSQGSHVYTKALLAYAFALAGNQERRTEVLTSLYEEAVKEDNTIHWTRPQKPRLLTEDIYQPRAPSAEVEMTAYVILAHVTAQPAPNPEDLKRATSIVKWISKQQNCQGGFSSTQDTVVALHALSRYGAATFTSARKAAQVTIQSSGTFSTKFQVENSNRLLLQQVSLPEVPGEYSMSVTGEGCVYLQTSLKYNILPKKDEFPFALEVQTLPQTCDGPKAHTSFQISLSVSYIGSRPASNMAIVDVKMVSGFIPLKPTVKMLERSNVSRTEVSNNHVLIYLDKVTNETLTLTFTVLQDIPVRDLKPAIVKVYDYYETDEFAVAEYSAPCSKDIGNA
Protocol: as §1, §2, §3, §4
Buffer, 0.5 ml and 0.1 ml of substrate solution are charged in a silicone-treated hard glass test tube or plastic test tube. The mixture is previously heated for 5 minutes in a thermostat at 37° C.
Then, 0.05 ml of enzyme reagent is added to the mixture to perform enzyme reaction at 37° C. for 10 minutes.
Accurately 10 minutes after, 1.0 ml of the terminate solution is added to stop the enzyme reaction. Then the reaction mixture is allowed to stand at 37° C. for 10 minutes and its absorbancy is measured at 405 nm.
as §6

[4] = Solubility of the substrates in water; format: physicochemical
Excerpt: (B) Solubility of the substrates of this invention and known substrates in water were examined.

Compound	Relative Reactivity to Enzyme (relative value of absorbance) Try [1]	Relative Reactivity to Enzyme (relative value of absorbance) Normal Serum [2]	Relative Reactivity to Enzyme (relative value of absorbance) α2 M-Try [3]	Solubility [4]
CC(C)[C@H](NC(=O)OCc1ccccc1)C(=O)NCC(=O)N[C@@H](CCCNC(=N)N)C(=O)Nc1ccc([N+](=O)[O-])cc1 [CHR-TRY, Z-Val-Gly-Arg-pNA-HCl, reference compound] (HELM PEPTIDE1{[O=C(OCc1ccccc1)[*:2]].V.G.R.[O=[N+]([O-])c1ccc(N[*:1])cc1]}$$$$V2.0)	0.50	1.70	0.73	insoluble
Cl.Cl.NC(N)=NCCC[C@H](NC(=O)[C@@H]1CCCCN1C(=O)[C@H](N)Cc1ccccc1)C(=O)Nc1ccc([N+](=O)[O-])cc1 [S-2238, HDPhePipArgpNA.2HCl, reference compound]	0.39	5.50	0.68	
Cl.Cl.NC(N)=NCCC[C@H](NC(=O)CNC(=O)[C@H](N)CCC(=O)OCc1ccccc1)C(=O)Nc1ccc([N+](=O)[O-])cc1 [Substrate No. 2] (HELM PEPTIDE1{[dE].G.R.[O=[N+]([O-])c1ccc(N[*:1])cc1]}|CHEM1{[c1ccc(CO[*:1])cc1]}$PEPTIDE1,CHEM1,1:R3-1:R1$$$V2.0)	0.71	0.12	1.01	
CC(C)OC(=O)CC[C@@H](N)C(=O)NCC(=O)N[C@@H](CCCN=C(N)N)C(=O)Nc1ccc([N+](=O)[O-])cc1.Cl.Cl [Substrate No. 3] (HELM PEPTIDE1{[dE].G.R.[O=[N+]([O-])c1ccc(N[*:1])cc1]}|CHEM1{[CC(C)O[*:1]]}$PEPTIDE1,CHEM1,1:R3-1:R1$$$V2.0)	0.67	0.41	1.20	
CCCN(CCC)C(=O)CC[C@@H](N)C(=O)NCC(=O)N[C@@H](CCCN=C(N)N)C(=O)Nc1ccc([N+](=O)[O-])cc1.Cl.Cl [Substrate No. 21]	0.74	0.20	1.46	
Bz-Ile-Glu(OR)-Gly-Arg-pNA.HCl; R=H and CH3 [S-2222, reference compound]	1.0	1.0	1.0	6 mM/l
H-D-Glu(OCH.(C2 H5)2)-Gly-Arg-ANBS.2HCl [Substrate No. 1]	0.84	0.03	1.19	

Reference: patent publication US5115099A, “Substrates for determination of enzyme activity and intermediates for synthesis of the substrates as well as process for producing the intermediates” (Nitto Boseki Co., Ltd., priority 1988, dated 1992)
